Measured values as given in patent US20110136990A1, “POLYMER DERIVATIVE OF DOCETAXEL, METHOD OF PREPARING THE SAME AND USES THEREOF” (priority 2008, published 2011).

Columns and labels:
Assay type in all cases: in vivo
[1] = Pharmacokinetic study in mice (plasma levels of DTX); settings: male Balb/c mice, tail vein, 10 mg/kg, 5 minutes to 48 hours
Method: Ten mg in terms of DTX of the polymer derivative of docetaxel (PEG-pAsp-14DTX) obtained in Example 1 was precisely weighed into a sample vial, to which 1 ml of purified water was added to suspend the sample. After stirring at 4° C. for a whole day and night, it was sonicated under ice cooling for 10 minutes using a Biodisruptor (Nihon Seiki Seisakusho, High Power Unit), filtered with a 0.22 μm filter [Millipore, Millex (registered trademark) GP PES], and the filtrate was collected. The filtrate was gel-filtered (GE Healthcare Bioscience, PD-10, the elution solution: a 10% sucrose solution), and the collected polymer micelle fraction (the mean particle size 120 nm) was used in the following experiment. […]
DTX in the polymer-bound form was hydrolyzed to a free form, and total DTX was determined as follows. […] This was loaded in a HPLC sample vial and analyzed by HPLC under the following condition. The content of DTX was calculated based on the ratio of the peak area of DTX relative to the peak area derived from paclitaxel, which was used as the internal standard.
To 50 μl of the collected plasma, 20 μl of paclitaxel/50% acetonitrile (20 μg/mL) as the internal standard and 300 μl of ethyl acetate were added in this order, and stirred vigorously for one minute at room temperature. […] This was loaded in a HPLC sample vial and analyzed by HPLC […]

[2] = tested on: human prostate cancer PC-3 cells; assay: Drug efficacy test using human prostate cancer PC-3 cells (tumor volume); settings: nude mice, PC-3 xenograft, 15 mg/kg, tail vein every four days, three times
Method: Using the polymer derivative of docetaxel (PEG-pAsp-14DTX) obtained in Example 1, the following experiment was carried out. PC-3 cells were purchased from ATCC through Summit Pharmaceuticals International Corporation. PC-3 cells were cultured in a RPMI1640+10% FBS medium at 5% CO2 and 37° C., and grown to the cell number required for xenograft. The cells were suspended in physiological saline, and inoculated subcutaneously at the back of the male nude mice [Balb nu/nu, 5 week-old, Charles River Laboratories Japan, Inc.] to 3×10^6 cells/100 μl per mouse. Then, the nude mice were kept for 15 days, and drug administration was started when the tumor volume reached 81.6±5.0 mm^3 (mean±SE, in which SE represents the standard error, the same shall apply hereinafter). […] For the following four groups (n=8), changes in tumor volume and body weight over time were determined: (1) Control group (untreated), (2) 15 mg/kg of a DMSO solution of docetaxel group, (3) 15 mg/kg of PEG-pAsp-14DTX group, and (4) 20 mg/kg of PEG-pAsp-14DTX group (the dosage was the converted amount of docetaxel mg/kg/injection). […] For tumor volume, the major dimension (a mm) and the minor dimension (b mm) were measured with an electronic caliper [Mitsutoyo Corporation], and the volume was calculated according to the following equation. […]

[3] = Changes in body weight of mice bearing PC-3 cells; settings: nude mice bearing PC-3, 15 mg/kg, tail vein every four days, three times
Method: Using the polymer derivative of docetaxel (PEG-pAsp-14DTX) obtained in Example 1, the following experiment was carried out. PC-3 cells were purchased from ATCC through Summit Pharmaceuticals International Corporation. PC-3 cells were cultured in a RPMI1640+10% FBS medium at 5% CO2 and 37° C., and grown to the cell number required for xenograft. The cells were suspended in physiological saline, and inoculated subcutaneously at the back of the male nude mice [Balb nu/nu, 5 week-old, Charles River Laboratories Japan, Inc.] to 3×10^6 cells/100 μl per mouse. Then, the nude mice were kept for 15 days, and drug administration was started when the tumor volume reached 81.6±5.0 mm^3 (mean±SE, in which SE represents the standard error, the same shall apply hereinafter). […] For the following four groups (n=8), changes in tumor volume and body weight over time were determined: (1) Control group (untreated), (2) 15 mg/kg of a DMSO solution of docetaxel group, (3) 15 mg/kg of PEG-pAsp-14DTX group, and (4) 20 mg/kg of PEG-pAsp-14DTX group (the dosage was the converted amount of docetaxel mg/kg/injection). […] For tumor volume, the major dimension (a mm) and the minor dimension (b mm) were measured with an electronic caliper [Mitsutoyo Corporation], and the volume was calculated according to the following equation.

Compound: CC(=O)O[C@@]12CO[C@@H]1C[C@H](O)[C@@]1(C)C(=O)[C@H](O)C3=C(C)[C@@H](OC(=O)[C@H](O)[C@@H](NC(=O)OC(C)(C)C)c4ccccc4)C[C@@](O)([C@@H](OC(=O)c4ccccc4)[C@H]21)C3(C)C [docetaxel solution, docetaxel]
- changes in plasma levels with time (docetaxel) [1]: disappears rapidly

Compound: CC(=O)O[C@@]12CO[C@@H]1C[C@H](O)[C@@]1(C)C(=O)[C@H](O)C3=C(C)[C@@H](OC(=O)[C@H](O)[C@@H](NC(=O)OC(C)(C)C)c4ccccc4)C[C@@](O)([C@@H](OC(=O)c4ccccc4)[C@H]21)C3(C)C [DMSO solution of docetaxel, docetaxel]
- tumor growth compared to control group [2]: tumor growth was markedly suppressed
- reduction in body weight [3]: marked reduction in body weight
